Where “and” joins values, the source holds several entries; their conditions need not be identical. Equal entries are not always repeated. Where two headings read alike, the source gives them in different places.
Legend:
[1] = tested on: panel of cancer cell lines; test: MTT cytotoxicity averaged across the panel of cancer cell lines; format: cell-based; conditions: for enhanced activity compared to platinum(II) precursor across the cancer cell lines: across all cancer cell lines; for GI50: calculated from the panel of cancer cell lines tested (Table S4)
[2] = tested on: MCF-7 breast cancer cells; test: MTT in vitro cytotoxicity assay, MCF-7; format: cell-based; conditions: for GI50: MTT, 72 h drug exposure, n = 3, read-out: GI50 ± SEM, MCF-7
[3] = Lipophilicity by RP-HPLC (logkw); format: physicochemical; conditions: capacity factor in 100% water
Procedure: HPLC experiments were carried out using an Agilent Technologies (Melbourne, Australia) 1260 Infinity instrument, equipped with a Phenomenex (Sydney, Australia) Onyx^TM Monolithic C18 reverse phase column (100 × 4.6 mm, 130 Å). The mobile phase was made up of 0.06% TFA in water (solvent A) and 0.06% TFA in an acetonitrile:water (9:1) mixture (solvent B). Samples were eluted over a gradient of 0–100% (% B) for 15 min, at a flow rate of 1 mL/min, with a sample injection volume of 10 µL. Eluting peaks were detected using a PDA at 254 nm.
For lipophilicity experiments, RP-HPLC was utilised to determine the logkw of each compound, similarly to what has been previously published for similar complexes. Samples were eluted at various isocratic percentages, ranging from 18–30% solvent B. To determine the dead volume of the column, potassium iodide was used as an external dead volume marker. The retention time of each sample in each isocratic run ( tr ) and the dead volume time ( t0 ) were both substituted in Equation (1) to calculate the capacity factor ( k ). (1) k=tr−t0/t0
Following this, logk was plotted against the percentage of ACN. For each complex, a minimum of four concentrations of ACN were used. This produced a linear graph with the equation in the form:(2) logk=Sφ+logkw where S is the slope, φ is the percentage of ACN, and logkw is the y-intercept, which represents the capacity factor of the compound in 100% water.
It is important to explore the lipophilicity of a drug, as it is widely believed that increased lipophilicity results in greater cellular accumulation. To understand the lipophilicity of 1–4, RP-HPLC was utilised to determine the logkw of each complex. To calculate this, each complex was eluted at different isocratic percentages, whereby the retention time was used in Equation (1) to calculate the capacity factor (k). The percentage of the organic solvent was then plotted against log k for each isocratic percentage, producing a linear equation that allowed for logkw to be deduced using Equation (2) (Figure S38). The logkw value represents the capacity factor of the compound in 100% water and can be used to compare a series of compounds. Since 1–4 comprise the same axially bound ligand, biotin, the lipophilicity was influenced by the groups on the PL. The logkw of each complex is presented in Table 1, with their corresponding PL. The increasing lipophilicity of the complexes followed the order: 1 < 4 < 2 < 3.

[4] = tested on: A2780 ovarian cancer cells; test: MTT in vitro cytotoxicity assay, A2780; format: cell-based; conditions: 72 h drug exposure, n = 3, read-out: GI50 ± SEM, A2780
Procedure: (§1) The in vitro cytotoxicity assays were undertaken at Calvary Mater Hospital, Waratah, NSW, Australia, following a method previously published in the literature. A stock solution for each compound was prepared in DMSO (30 mM) and stored at −20 °C. The cell lines used in the study include HT29 colon, U87 glioblastoma, MCF-7 breast, A2780 ovarian, H460 lung, A431 skin, Du145 prostate, BE2-C neuroblastoma, SJ-G2 glioblastoma, MIA pancreas, and cisplatin-resistant ADDP ovarian (subclone of A2780) cancer cells, as well as the non-cancerous-derived MCF10A breast cell line. The cancer cell lines were cultured in a humidified atmosphere 5% CO2 at 37 °C and maintained in Dulbecco’s modified Eagle’s medium (Trace Biosciences, Sydney, Australia), supplemented with 10% foetal bovine serum, sodium bicarbonate (10 mM), penicillin (100 IU/mL), streptomycin (100 µg/mL), and glutamine (4 mM). The non-cancerous MCF10A cell line was maintained in DMEM:F12 (1:1) cell culture media, with 5% heat inactivated horse serum, supplemented with penicillin (50 IU/mL), streptomycin (50 µg/mL), glutamine (2 mM), HEPES (20 mM), epidermal growth factor (20 ng/mL), hydrocortisone (500 ng/mL), cholera toxin (100 ng/mL), and insulin (10 µg/mL). Cells were plated in duplicate in medium (100 µL) at a density of 2500–4000 cells per well in 96-well plates. On day 0, (24 h after plating) when the cells were in logarithmic growth, medium (100 μL) with or without the test agent was added to each well. The growth inhibitory effects were evaluated after 72 h drug exposure, using the MTT (3-(4,5-dimethylthiazol-2-yl)-2,5-diphenyltetrazolium bromide) assay, with the absorbance read at 540 nm. An eight-point dose–response curve was produced, which was used to determine the concentration at which growth was inhibited by 50% (GI50). This calculation was based on the difference between the optical density values on day 0 and those at the end of drug exposure. […] Experiments were conducted on three separate occasions and GI50 values were reported as the mean and standard error of the mean.

[5] = tested on: Du145 prostate cancer cells; test: MTT in vitro cytotoxicity assay, Du145; format: cell-based; conditions: for GI50: MTT; for number-fold potency against cisplatin, Du145 prostate: ratio of GI50 values
Procedure: as §1

SJ-G2 glioblastoma cells = test: MTT in vitro cytotoxicity assay, SJ-G2; format: cell-based; conditions: 72 h drug exposure, n = 3, read-out: GI50 ± SEM, SJ-G2
Procedure: as §1

[6] = tested on: BE2-C neuroblastoma cells; test: MTT in vitro cytotoxicity assay, BE2-C; format: cell-based; conditions: 72 h drug exposure, n = 3, read-out: GI50 ± SEM, BE2-C
Procedure: as §1

U87 glioblastoma cells = test: MTT in vitro cytotoxicity assay, U87; format: cell-based; conditions: 72 h drug exposure, n = 3, read-out: GI50 ± SEM, U87
Procedure: as §1

[7] = tested on: cisplatin-resistant ADDP ovarian (subclone of A2780) cancer cells; test: MTT in vitro cytotoxicity assay, ADDP; format: cell-based; conditions: 72 h drug exposure, n = 3, read-out: GI50 ± SEM, ADDP
Procedure: as §1

A431 skin cancer cells = test: MTT in vitro cytotoxicity assay, A431; format: cell-based; conditions: 72 h drug exposure, n = 3, read-out: GI50 ± SEM, A431
Procedure: as §1

[8] = tested on: non-cancerous MCF10A breast cell line; test: MTT in vitro cytotoxicity assay, MCF10A; format: cell-based; conditions: 72 h drug exposure, n = 3, read-out: GI50 ± SEM, MCF10A
Procedure: as §1

[9] = tested on: ADDP (subclone of A2780) versus A2780 ovarian cancer cell lines; test: Resistance factor, GI50 in ADDP/GI50 in A2780; format: cell-based
HT29 colon cancer cells = test: MTT in vitro cytotoxicity assay, HT29; format: cell-based; conditions: for GI50: MTT, 72 h drug exposure, n = 3, read-out: GI50 ± SEM, HT29; for number-fold potency against cisplatin, HT29 colon: ratio of GI50 values, 72 h
Procedure: as §1

H460 lung cancer cells = test: MTT in vitro cytotoxicity assay, H460; format: cell-based; conditions: 72 h drug exposure, n = 3, read-out: GI50 ± SEM, H460
Procedure: as §1

[10] = tested on: MIA pancreas cancer cells; test: MTT in vitro cytotoxicity assay, MIA; format: cell-based; conditions: 72 h drug exposure, n = 3, read-out: GI50 ± SEM, MIA
Procedure: as §1

[11] = tested on: MCF-7 (breast cancer) cells; test: Cellular platinum uptake by ICP-MS, MCF-7; format: cell-based; conditions: at both 1.0 and 0.1 µM, 4 h
Procedure: Cellular uptake studies were carried out in MCF-7 (breast cancer) and MCF10A (healthy breast) cell lines. Reported in Table S2 are the numbers of cells per well that were seeded onto 12-well plates for each replicate and cell line. After incubating overnight at 37 °C, the cell culture medium was replaced with fresh media containing the test compounds at concentrations of 1.0 and 0.1 µM. After incubating for 4 h, the medium was removed, the cells were washed with PBS twice, and then incubated with trypsin solution until the cells dissociated from the plate. The harvested cells were then placed into an Eppendorf tube and PBS was added to a volume of 1 mL. Cell numbers were determined using trypan blue staining. Cell pellets were obtained after centrifugation and the cells were dispersed in 50 µL of MilliQ™ water and stored immediately at −20 °C until platinum analysis was conducted. These experiments were repeated in triplicate on three separate occasions.
Sixty-nine percent HNO3 (50 µL) was added to each sample and digested at 80 °C for 1.5 h, before being taken up to 1 mL with H2O. The platinum analysis was conducted using a PerkinElmer (Melbourne, Australia) NexION™ 300X inductively coupled plasma mass spectrometer (ICP-MS). A four-point calibration curve was produced by serial dilution of a certified platinum reference standard. The calibration was linear over the working range (R^2 > 0.9999) and the most abundant platinum isotope (m/z = 195) was monitored. The average values for three independent experiments were reported with standard deviations.

[12] = 72 h drug exposure, n = 3, read-out: GI50 ± SEM, Du145

O=C1N[C@H]2[C@H](CS[C@H]2CCCCC(=O)[O][Pt-2]23([OH])([NH2+][C@H]4CCCC[C@@H]4[NH2+]2)[n+]2cccc4ccc5ccc[n+]3c5c42)N1.O=[N+]([O-])[O-].O=[N+]([O-])[O-] [Complex 1, [Pt(1,10-phenthroline)(1S,2S-diaminocyclohexane)(biotin)(hydroxido)](NO3)2]
enhanced activity compared to platinum(II) precursor across the cancer cell lines [1]: comparable activity | GI50 [1]: 455 nM | GI50 [2]: 850 ± 140 nM | logkw [3]: 0.64 | GI50 [4]: 250 ± 20 nM | GI50 [5, 12]: 120 ± 40 nM | number-fold potency against cisplatin, Du145 prostate ([5]; 72 h): 10 fold | GI50 (SJ-G2 glioblastoma cells): 290 ± 70 nM | GI50 [6]: 1000 ± 100 nM | GI50 (U87 glioblastoma cells): 970 ± 150 nM | GI50 [7]: 240 ± 10 nM | GI50 (A431 skin cancer cells): 600 ± 110 nM | GI50 [8]: 280 ± 40 nM | Resistance factor (RF) [9]: 0.96 | GI50 (HT29 colon cancer cells): 170 ± 60 nM | number-fold potency against cisplatin, HT29 colon (HT29 colon cancer cells): 66 fold | GI50 (H460 lung cancer cells): 300 ± 20 nM | GI50 [10]: 210 ± 30 nM

Cc1c(C)c2ccc[n+]3c2c2c1ccc[n+]2[Pt-2]31([OH])([O]C(=O)CCCC[C@@H]2SC[C@@H]3NC(=O)N[C@@H]32)[NH2+][C@H]2CCCC[C@@H]2[NH2+]1.O=[N+]([O-])[O-].O=[N+]([O-])[O-] [Complex 2, [Pt(5,6-dimethyl-1,10-phenanthroline)(1S,2S-diaminocyclohexane)(biotin)(hydroxido)](NO3)2]
enhanced activity compared to platinum(II) precursor across the cancer cell lines [1]: ~ 2 fold | GI50 [1]: 27 nM | GI50 [2]: 22 ± 8 nM | logkw [3]: 0.78 | GI50 [4]: 20 ± 4 nM | GI50 ([5]; 72 h, read-out: GI50, Du145 prostate cancer cell line): 4 nM | number-fold potency against cisplatin, Du145 prostate ([5]; 72 h): 300 fold | GI50 (SJ-G2 glioblastoma cells): 36 ± 10 nM | GI50 [6]: 100 ± 10 nM | GI50 (U87 glioblastoma cells): 32 ± 8 nM | GI50 [7]: 11 ± 4 nM | GI50 (A431 skin cancer cells): 36 ± 6 nM | GI50 [8]: 14 ± 4 nM | Resistance factor (RF) [9]: 0.55 | GI50 (HT29 colon cancer cells): 11 ± 5 nM | GI50 (H460 lung cancer cells): 18 ± 4 nM | GI50 [10]: 10 ± 2 nM

Cc1cc2ccc[n+]3c2c2c1ccc[n+]2[Pt-2]31([OH])([O]C(=O)CCCC[C@@H]2SC[C@@H]3NC(=O)N[C@@H]32)[NH2+][C@H]2CCCC[C@@H]2[NH2+]1.O=[N+]([O-])[O-].O=[N+]([O-])[O-] [Complex 4, [Pt(5-methyl-1,10-phenanthroline)(1S,2S-diaminocyclohexane)(biotin)(hydroxido)](NO3)2]
enhanced activity compared to platinum(II) precursor across the cancer cell lines [1]: ~ 2.3 fold | GI50 [1]: 55 nM | GI50 [2]: 33 ± 4 nM | fold more active than its platinum(II) precursor in MCF-7 ([2]; ratio of GI50 values): 6 fold | logkw [3]: 0.74 | GI50 [4]: 34 ± 5 nM | GI50 [5, 12]: 9 ± 4 nM | number-fold potency against cisplatin, Du145 prostate ([5]; 72 h): 133 fold | GI50 (SJ-G2 glioblastoma cells): 100 ± 30 nM | fold lower uptake in MCF-7 than its platinum(II) precursor [11]: ~ 2 fold | GI50 [6]: 100 ± 20 nM | GI50 (U87 glioblastoma cells): 110 ± 30 nM | GI50 [7]: 29 ± 5 nM | GI50 (A431 skin cancer cells): 110 ± 20 nM | GI50 [8]: 31 ± 9 nM | Resistance factor (RF) [9]: 0.853 and 0.85 | GI50 (HT29 colon cancer cells): 28 ± 9 nM | number-fold potency against cisplatin, HT29 colon (HT29 colon cancer cells): 404 fold | GI50 (H460 lung cancer cells): 32 ± 10 nM | GI50 [10]: 20 ± 4 nM
